Assay [1] concerns the target Mitogen-activated protein kinase kinase kinase kinase 1 (Homo sapiens) (UniProt Q92918). Description: Selectivity interaction (LanthaScreen Eu Kinase Binding Assay) EUB0001632a MAP4K1. To be noted: at 10 µM. For orientation: Time-resolved FRET reads energy transfer from a long-lived donor to a nearby acceptor.
Assay [2] concerns the target T1, Ephrin type-B receptor 3 (Homo sapiens) (UniProt P54753).
T1 sequence (whole entry): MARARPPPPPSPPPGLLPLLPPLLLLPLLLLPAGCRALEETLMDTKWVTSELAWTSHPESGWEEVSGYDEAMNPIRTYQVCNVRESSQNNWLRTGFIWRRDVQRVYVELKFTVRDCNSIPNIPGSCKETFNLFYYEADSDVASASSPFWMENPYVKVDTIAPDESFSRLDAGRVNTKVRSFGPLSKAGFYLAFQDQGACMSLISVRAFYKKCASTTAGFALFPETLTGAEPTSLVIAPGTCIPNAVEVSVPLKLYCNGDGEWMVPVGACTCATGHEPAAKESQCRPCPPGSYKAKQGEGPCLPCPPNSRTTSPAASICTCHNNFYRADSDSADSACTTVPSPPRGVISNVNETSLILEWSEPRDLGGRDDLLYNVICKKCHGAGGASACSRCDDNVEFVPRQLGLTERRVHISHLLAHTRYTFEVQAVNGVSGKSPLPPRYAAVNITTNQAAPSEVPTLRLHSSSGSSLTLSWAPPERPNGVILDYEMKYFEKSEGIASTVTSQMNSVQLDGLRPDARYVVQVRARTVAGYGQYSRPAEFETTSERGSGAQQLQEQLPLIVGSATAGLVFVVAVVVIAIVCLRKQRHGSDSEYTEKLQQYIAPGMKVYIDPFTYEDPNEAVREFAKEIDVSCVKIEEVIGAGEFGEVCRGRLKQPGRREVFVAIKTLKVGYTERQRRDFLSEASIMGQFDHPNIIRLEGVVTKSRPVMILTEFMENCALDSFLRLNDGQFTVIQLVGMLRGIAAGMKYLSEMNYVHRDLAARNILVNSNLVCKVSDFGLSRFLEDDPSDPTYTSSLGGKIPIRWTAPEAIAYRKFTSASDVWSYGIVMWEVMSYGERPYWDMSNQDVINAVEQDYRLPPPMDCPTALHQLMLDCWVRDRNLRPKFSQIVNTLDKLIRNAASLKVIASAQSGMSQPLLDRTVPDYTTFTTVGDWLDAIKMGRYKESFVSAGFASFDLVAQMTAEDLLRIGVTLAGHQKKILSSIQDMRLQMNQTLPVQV
Description: Selectivity interaction (Kinase panel (DSF assay)) EUB0001558a EPHB3. A general note: In DSF a fluorescence change marks the thermal transition of the protein.

Assay [3] concerns the target T2, Cyclin-dependent kinase-like 5 (Homo sapiens) (UniProt O76039).
T2 sequence (whole entry): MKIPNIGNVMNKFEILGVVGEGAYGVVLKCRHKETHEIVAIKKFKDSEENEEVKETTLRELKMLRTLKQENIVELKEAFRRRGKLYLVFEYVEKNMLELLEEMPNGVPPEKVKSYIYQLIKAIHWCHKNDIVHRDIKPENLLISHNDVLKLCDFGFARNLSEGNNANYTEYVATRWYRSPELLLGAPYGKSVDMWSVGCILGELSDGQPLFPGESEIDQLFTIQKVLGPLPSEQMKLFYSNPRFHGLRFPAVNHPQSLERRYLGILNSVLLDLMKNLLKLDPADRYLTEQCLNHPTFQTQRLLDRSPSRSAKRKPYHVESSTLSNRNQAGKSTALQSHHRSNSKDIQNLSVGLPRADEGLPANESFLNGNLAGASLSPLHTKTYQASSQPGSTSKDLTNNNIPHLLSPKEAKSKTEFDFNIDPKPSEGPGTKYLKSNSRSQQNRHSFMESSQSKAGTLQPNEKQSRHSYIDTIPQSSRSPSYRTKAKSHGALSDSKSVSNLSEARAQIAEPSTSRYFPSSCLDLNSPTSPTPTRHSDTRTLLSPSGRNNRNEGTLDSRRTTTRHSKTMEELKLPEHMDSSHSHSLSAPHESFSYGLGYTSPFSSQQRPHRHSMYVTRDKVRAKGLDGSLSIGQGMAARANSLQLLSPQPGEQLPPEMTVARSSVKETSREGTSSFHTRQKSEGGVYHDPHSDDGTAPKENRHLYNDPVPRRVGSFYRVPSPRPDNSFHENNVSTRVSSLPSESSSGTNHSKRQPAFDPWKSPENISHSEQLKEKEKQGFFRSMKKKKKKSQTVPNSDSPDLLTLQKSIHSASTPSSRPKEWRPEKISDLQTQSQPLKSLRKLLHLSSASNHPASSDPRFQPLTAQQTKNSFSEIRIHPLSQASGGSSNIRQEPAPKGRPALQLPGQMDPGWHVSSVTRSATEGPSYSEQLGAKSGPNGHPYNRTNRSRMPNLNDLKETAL
Briefly: Selectivity interaction (KinomeScan (DiscoverX)) EUB0000595a CDKL5. The following applies: at 10 µM.

Sequence of Mitogen-activated protein kinase kinase kinase kinase 1 (Homo sapiens) (Q92918 whole entry, looked up): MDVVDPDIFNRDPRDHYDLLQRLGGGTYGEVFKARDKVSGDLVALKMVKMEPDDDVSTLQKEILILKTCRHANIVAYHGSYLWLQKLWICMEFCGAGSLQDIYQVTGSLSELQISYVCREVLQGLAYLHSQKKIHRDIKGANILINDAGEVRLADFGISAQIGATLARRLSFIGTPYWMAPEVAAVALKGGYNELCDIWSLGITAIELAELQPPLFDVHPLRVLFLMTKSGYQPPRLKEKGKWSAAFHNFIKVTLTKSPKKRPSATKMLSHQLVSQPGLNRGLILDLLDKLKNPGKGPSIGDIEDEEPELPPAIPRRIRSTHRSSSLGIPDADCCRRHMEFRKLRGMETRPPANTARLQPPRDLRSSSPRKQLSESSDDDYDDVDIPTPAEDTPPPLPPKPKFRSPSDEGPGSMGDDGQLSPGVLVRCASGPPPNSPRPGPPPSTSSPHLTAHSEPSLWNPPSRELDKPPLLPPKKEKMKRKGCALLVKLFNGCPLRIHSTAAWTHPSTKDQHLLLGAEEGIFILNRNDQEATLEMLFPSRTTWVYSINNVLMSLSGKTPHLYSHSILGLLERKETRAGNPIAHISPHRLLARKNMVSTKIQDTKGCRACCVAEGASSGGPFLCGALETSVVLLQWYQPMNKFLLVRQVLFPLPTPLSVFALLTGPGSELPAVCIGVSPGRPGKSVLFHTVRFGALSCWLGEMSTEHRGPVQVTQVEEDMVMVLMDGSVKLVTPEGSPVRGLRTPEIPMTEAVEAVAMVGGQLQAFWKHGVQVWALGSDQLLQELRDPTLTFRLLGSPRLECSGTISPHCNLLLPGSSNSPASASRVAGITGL

Turning to `Cn1cc(-n2cnc3c(NCc4nc5cc(Cl)c(Cl)cc5[nH]4)nc(N4CCOCC4)nc32)cn1`, the % of inhibition in assay [1] is -18.9%.
Compound `CC(C)(O)[C@H](F)CN1Cc2cc(NC(=O)c3cnn4cccnc34)c(N3CCOCC3)cc2C1=O` showed a dTM in assay [2] of 2.1 K.
`COCC(=O)NC/C=C/c1ccc2ncnc(Nc3ccc(Oc4ccc(C)nc4)c(C)c3)c2c1` [CP-724714] registered a % of control in assay [3] of 100%.

These data come from ChEMBL document CHEMBL5465560, “Selectivity Literature for EUbOPEN Chemogenomic Library” (2024).
